Results: patent US8420670B2 (Abbott Laboratories, priority 2007, dated 2013)
Structures can show the parent of a compound that is named as a salt.

What was measured:
[1] = biological target: T1, human GlyT1c transporter (Homo sapiens, UniProt P48067); assay: [3H]-(R)-NPTS radioligand binding assay using recombinant hGlyT1 expressing cell membranes; settings: 0.5 nM [3H]-(R)-NPTS, apparent Ki via Cheng-Prusoff, read-out: [3H]-(R)-NPTS bindung Ki
T1 construct: expressed in transfected cells; host or cells: recombinant hGlyT1-expressing cells
T1 sequence (P48067 1-706): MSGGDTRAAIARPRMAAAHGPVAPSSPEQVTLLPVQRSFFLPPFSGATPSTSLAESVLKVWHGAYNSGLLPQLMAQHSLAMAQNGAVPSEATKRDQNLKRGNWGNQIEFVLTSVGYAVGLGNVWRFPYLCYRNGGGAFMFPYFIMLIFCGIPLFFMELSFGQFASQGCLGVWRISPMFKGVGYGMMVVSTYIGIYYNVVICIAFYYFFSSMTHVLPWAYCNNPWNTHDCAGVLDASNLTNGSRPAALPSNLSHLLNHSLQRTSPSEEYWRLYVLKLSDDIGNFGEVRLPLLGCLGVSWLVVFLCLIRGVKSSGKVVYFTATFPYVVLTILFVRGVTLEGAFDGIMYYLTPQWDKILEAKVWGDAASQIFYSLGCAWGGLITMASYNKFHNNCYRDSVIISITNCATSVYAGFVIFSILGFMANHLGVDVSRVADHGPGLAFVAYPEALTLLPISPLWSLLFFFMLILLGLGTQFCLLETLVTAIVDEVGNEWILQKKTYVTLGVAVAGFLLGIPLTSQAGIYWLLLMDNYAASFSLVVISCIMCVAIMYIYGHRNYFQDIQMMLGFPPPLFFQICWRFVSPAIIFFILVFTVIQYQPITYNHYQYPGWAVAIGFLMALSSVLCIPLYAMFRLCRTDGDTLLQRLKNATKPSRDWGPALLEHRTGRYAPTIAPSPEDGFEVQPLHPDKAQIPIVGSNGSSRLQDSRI
Procedure: 2. [^3H]-(R)-NPTS Radioligand Binding Assays using Recombinant hGlyT1 Expressing Cell Membranes:
Radioligand binding to human GlyT1c transporter-expressing membranes was measured in duplicate in a total volume of 200 μl in 96-well plates. To 100 μl of membrane suspension (yielding a final membrane protein concentration of 50 μg/ml) in assay buffer (120 mM NaCl, 2 mM KCl, 10 mM Hepes, 1 mM MgCl2, 1 mM CaCl2, pH 7.5) […] of [^3H]-(R)NPTS (0.5 nM final) were added in assay buffer. For competition experiments 10 μl of buffer or unlabeled compound solution obtained from dilution series of test compounds in DMSO followed. An intermediate 1:10 dilution in assay buffer yielded a final DMSO concentration of 1%. Non-specific binding was determined in the presence of 10 μM Org24598 (or its racemate Org24461) for [^3H]-(R)-NPTS. After incubation at room temperature for 1 h, the incubation mixture was harvested (Tomtec Mach III U Harvester) through 96-well GF/B filter plates (PerkinElmer), presoaked for 1 h with 40 μl per well of 0.1% polyethylene-imine (PEI). After washing twice with ice-cold 50 mM Tris-HCl pH 7.4 buffer, drying and addition of 35 μl scintillator (BetaplateScint, PerkinElmer) per well followed. The radioactivity was determined by liquid scintillation spectrometry in a MicroBeta (PerkinElmer) plate counter.
Data analysis: For binding of [^3H]-(R)-NPTS to cell membranes, the calculation of Kd and Bmax values from the saturation binding assays and the IC50 values from the displacement binding was performed by iterative non-linear regression analysis adapted from the ‘Ligand’ program (Munson and Rodbard, 1980). Radioligand displacement curves in absence or in presence of increasing concentrations of tested compounds were fitted using a one-site fit and the apparent Ki values were calculated from the IC50 values using the Cheng-Prusoff equation (Cheng and Prusoff 1973).

[2] = biological target: T2, Human GlyT1c (Homo sapiens, UniProt P48067); assay: Glycine uptake in recombinant hGlyT1 expressing cells; type: cell-based; settings: hGlyT1c_5_CHO cells; [3H]-glycine uptake, 60-120 min
T2 construct: expressed in transfected cells; host or cells: CHO (hGlyT1c_5_CHO clone)
T2 sequence (P48067 1-706): T1 sequence (P48067 1-706)
Procedure: 1. Glycine Uptake in Recombinant hGlyT1 Expressing Cells:
Human GlyT1c expressing recombinant hGlyT1c—5_CHO cells were plated at 20,000 cells per well in 96 well Cytostar-T scintillation microplates (Amersham Biosciences) and cultured to sub-confluency for 24 h. For glycine uptake assays the culture medium was aspirated and the cells were washed once with 100 μl HBSS (Gibco BRL, #14025-050) with 5 mM L-Alanine (Merck #1007). 80 μl HBSS buffer were added, followed by 10 μl inhibitor or vehicle (10% DMSO) and 10 μl [^3H]-glycine (TRK71, Amersham Biosciences) to a final concentration of […] for initiation of glycine uptake. The plates were placed in a Wallac Microbeta (PerkinElmer) and continuously counted by solid phase scintillation spectrometry during up to 3 hours. Nonspecific uptake was determined in the presence of 10 μM Org24598. IC50 calculations were made by four-parametric logistic nonlinear regression analysis (GraphPad Prism) using determinations within the range of linear increase of [^3H]-glycine incorporation between 60 and 120 min.

Structure (SMILES) | Ki [1] [nM] | IC50 [2] [nM]
Cc1cc(NCc2ccc(Cl)c(Cl)c2)c2cccc(O)c2n1 [Example 41, 4-(3,4-Dichlorobenzylamino)-2-methylquinolin-8-ol] | ≤ 100 | ≤ 1000
Cc1cc(NCc2ccc(Cl)c(Cl)c2)c2cccc(OC(C)C)c2n1 [Example 42, (3,4-Dichlorobenzyl)-(8-isopropoxy-2-methylquinolin-4-yl)-amine hydrochloride] | ≤ 100 | ≤ 100
CCCOc1cccc2c(NCc3ccc(Cl)c(Cl)c3)cc(C)nc12 [Example 43, (3,4-Dichlorobenzyl)-(2-methyl-8-propoxyquinolin-4-yl)-amine] | ≤ 100 | ≤ 1000
Cc1cc(NCc2ccc(Cl)c(Cl)c2)c2cccc(Oc3ccccc3)c2n1 [Example 44, (3,4-Dichlorobenzyl)-(2-methyl-8-phenoxyquinolin-4-yl)-amine] | ≤ 1000 | ≤ 1000
CCCOc1cccc2c(NCc3ccc(C(F)(F)F)c(Cl)c3)cc(C)nc12 [Example 45, (3-Chloro-4-trifluoromethylbenzyl)-(2-methyl-8-propoxyquinoline-4-yl)-amine hydrochloride] | ≤ 10000 | ≤ 10000
Cc1cc(NCc2ccc(Cl)c(Cl)c2)c2cccc(OCc3ccccc3)c2n1 [Example 46, (8-Benzyloxy-2-methylquinolin-4-yl)-(3,4-dichlorobenzyl)-amine] | ≤ 100 | ≤ 1000
Cc1cc(NCc2ccc(Cl)c(Cl)c2)c2cccc(OCCn3cccn3)c2n1 [Example 47, (3,4-Dichlorobenzyl)-[2-methyl-8-(2-pyrazol-1-yl-ethoxy)-quinolin-4-yl]-amine hydrochloride] | ≤ 100 | ≤ 1000
Cc1cc(NCc2ccc(Cl)c(Cl)c2)c2cccc(OCCN3CCOCC3)c2n1 [Example 48, (3,4-Dichlorobenzyl)-[2-methyl-8-(2-morpholin-4-yl-ethoxy)-quinolin-4-yl]-amine dihydrochloride] | ≤ 100 | ≤ 100
COCCOc1cccc2c(NCc3ccc(Cl)c(Cl)c3)cc(C)nc12 [Example 49, (3,4-Dichlorobenzyl)-[8-(2-methoxyethoxy)-2-methylquinolin-4-yl]-amine] | ≤ 100 | ≤ 100
Cc1cc(NCc2ccc(Cl)c(Cl)c2)c2cccc(OCCN(C)C)c2n1 [Example 50, (3,4-Dichlorobenzyl)-[8-(2-dimethylamino-ethoxy)-2-methylquinolin-4-yl]-amine dihydrochloride] | ≤ 100 | ≤ 1000
Cc1cc(NCc2ccc(Cl)c(Cl)c2)c2cccc(OCC(C)C)c2n1 [Example 51, (3,4-Dichlorobenzyl)-(8-isobutoxy-2-methylquinolin-4-yl)-amine] | ≤ 1000 | ≤ 1000
Cc1cc(NCc2ccc(Cl)c(Cl)c2)c2cccc(OCCN3CCCC3)c2n1 [Example 52, (3,4-Dichlorobenzyl)-[2-methyl-8-(2-pyrrolidin-1-yl-ethoxy)-quinolin-4-yl]-amine] | ≤ 100 | ≤ 1000
C=CCN1CCCC[C@H]1[C@@H](Nc1cc(C)nc2c(OC)cccc12)c1ccccc1 [Example 53, [(S)—((S)-1-Allylpiperidin-2-yl)-phenylmethyl]-(8-methoxy-2-methylquinolin-4-yl)-amine] | ≤ 10000 | ≤ 100000
COc1cccc2c(N[C@@H](c3ccccc3)[C@@H]3CCCCN3)cc(C)nc12 [Example 54, (8-Methoxy-2-methylquinolin-4-yl)-((S)-phenyl-(S)-piperidin-2-yl-methyl)-amine] | ≤ 1000 | ≤ 1000
Cc1cc(NCc2ccc(Cl)c(Cl)c2)c2cccc(Oc3ccccn3)c2n1 [Example 55, (3,4-Dichlorobenzyl)-[2-methyl-8-(pyridin-2-yloxy)-quinolin-4-yl]-amine] | ≤ 1000 | ≤ 10000
Cc1cc(NCc2ccc(Cl)c(Cl)c2)c2cccc(OC(F)(F)F)c2n1 [Example 56, (3,4-Dichloro-benzyl)-(2-methyl-8-trifluoromethoxyquinolin-4-yl)-amine] | ≤ 1000 | ≤ 100
COc1cccc2c(N[C@@H](C)c3ccc(Cl)cc3)cc(C)nc12 [Example 57, [(S)-1-(4-Chlorophenyl)-ethyl]-(8-methoxy-2-methylquinolin-4-yl)-amine] | ≤ 10000 | ≤ 100000
COc1cccc2c(N[C@H](C)c3ccc(Cl)cc3)cc(C)nc12 [Example 58, [(R)-1-(4-Chlorophenyl)-ethyl]-(8-methoxy-2-methylquinolin-4-yl)-amine] | ≤ 100 | ≤ 1000
C=CCN1CCCC[C@H]1[C@@H](Nc1cc(C)nc2ccccc12)c1ccccc1 [Example 59, [(S)—((S)-1-Allylpiperidin-2-yl)-phenylmethyl]-(2-methylquinolin-4-yl)-amine] | ≤ 10000 | ≤ 100000
Cc1cc(N[C@@H](c2ccccc2)[C@@H]2CCCCN2)c2ccccc2n1 [Example 60, (2-Methylquinolin-4-yl)-((S)-phenyl-(S)-piperidin-2-yl-methyl)-amine] | ≤ 1000 | ≤ 1000
Cc1cc(N[C@@H](c2ccccc2)[C@@H]2CCCCN2C)c2ccccc2n1 [Example 61, (S)—((S)-1-Methylpiperidin-2-yl)-phenylmethyl]-(2-methylquinolin-4-yl)-amine dihydrochloride] | ≤ 10000 | ≤ 10000
COc1cccc2c(NC(CN3CCOCC3)c3ccccc3)cc(C)nc12 (stereo not drawn) [Example 62, (8-Methoxy-2-methylquinolin-4-yl)-(2-morpholin-4-yl-1-phenyl)-ethylamine] | ≤ 10000 | ≤ 10000
COc1cccc2c(NC(CN3CCCCC3)c3ccccc3)cc(C)nc12 (stereo not drawn) [Example 63, (8-Methoxy-2-methyl-quinolin-4-yl)-(1-phenyl-2-piperidin-1-yl)-ethylamine] | ≤ 10000 | ≤ 100000
COc1cccc2c(NC(c3ccccc3)c3ccc(Cl)cc3)cc(C)nc12 (stereo not drawn) [Example 64, [(4-Chlorophenyl)-phenylmethyl]-(8-methoxy-2-methylquinolin-4-yl)-amine] | ≤ 10000 | ≤ 10000
COc1cccc2c(NC(CN3CCOCC3)c3ccc(Cl)cc3)cc(C)nc12 (stereo not drawn) [Example 65, [1-(4-Chlorophenyl)-2-morpholin-4-yl-ethyl]-(8-methoxy-2-methylquinolin-4-yl)-amine] | ≤ 10000 | ≤ 10000
COc1cccc2c(NC(CN3CCCCC3)c3ccc(Cl)cc3)cc(C)nc12 (stereo not drawn) [Example 66, [1-(4-Chlorophenyl)-2-piperidin-1-yl-ethyl]-(8-methoxy-2-methylquinolin-4-yl)-amine] | ≤ 10000 | ≤ 10000
COc1cccc2c(NC(CN3CCCC3)c3ccc(Cl)cc3)cc(C)nc12 (stereo not drawn) [Example 67, [1-(4-Chloro-phenyl)-2-pyrrolidin-1-yl-ethyl]-(8-methoxy-2-methyl-quinolin-4-yl)-amine] | ≤ 1000 | ≤ 10000
